Experimental findings from US9592214B2, “Compounds for the treatment of autism in a baby child” (INSERM (INSTITUT NATIONAL DE LA SANTE ET DE LA RECHERCHE …, priority 2010, dated 2017) are described below.

In one assay the test system is hippocampal slices. In words: Effects of isoguvacine on spike frequency, extracellular field potential recordings in hippocampal slices. The assay is classed as cell-based, rat. As to conditions: P15. As for the experimental part: (§1) Experiments were performed on fetuses and neonatal rat pups. We removed E20 rats from deeply anesthetized dams [subcutaneous injection of a mixture of xylazine (Rompun 2%; used at 0.05%) and ketamine (Imalgene 1000 used at 50 g/l)]. Hippocampal slices ([…] thick) were prepared using a Microm tissue slicer (International GmbH, Germany) as described previously (Tyzio et al. 2006 Science 314, 1788; Tyzio et al, 2008, Eur J. Neurosci. 27(10):2515-28). Slices were kept in oxygenated (95% O2/5% CO2) artificial cerebrospinal fluid (ACSF) of the following composition (in mM): NaCl 126, KCl 3.5, CaCl2 2.0, MgCl2 1.3, NaHCO3 25, NaH2PO4 1.2 and glucose 11 (pH 7.4) at room temperature (20-22° C.) at least 1 hour before use.
Extracellular field potentials and multi-unit activity (MUA) recordings Recording were made in the hippocampal slices using tungsten wire electrodes (diameter: 50 μm, California Fine Wire, Grover Beach, Calif.) and a low-noise multichannel DAM-8A amplifiers (WPI, GB; […]; gain: ×1000). The signals were digitized using an analogue-to-digital converter (Digidata 1440A, Axon Instruments, USA). pCLAMP 10.1, Clampfit 10.1 (Axon Instruments, USA), MiniAnalysis 6.03 (Synaptosoft, Decatur, Calif.) and Origin 7.5 (Microcal Software, USA) programs were used for the acquisition and analysis of the synaptic activities. Sampling interval per signal was 100 microseconds (10 kHz).
(§2) Bumetanide (10 μM), Oxytocin (1 μM) and Isoguvacine (2 μM) were directly added to the perfusion solutions. Bumetanide pretreatment (2-2.5 mg/kg) was given to the dams in drinking water. All drugs used were purchased from Sigma. SSR126768A (Sanofi-Synthelabo) pretreatment (1 mg/kg) was given to the dams in drinking water.

A further assay has as its system CA3 pyramidal cells. Description: Effect of isoguvacine on spontaneous spiking, cell-attached recordings. The assay is classed as cell-based, rat. As to conditions: result in words. Here is the method: as §1
For recordings, slices were placed into a conventional fully submerged chamber superfused with ACSF at a rate of 2-3 ml/min at room temperature. Patch clamp recordings from visually identified CA3 pyramidal cells in cell-attached configuration were performed using EPC-10 amplifier (HEKA Elektronik Dr. Schulze GmbH, Lambrecht/Pfalz, Germany). […] Recordings were digitized (10 kHz) online with Digidata-1200 interface card (Axon Instruments, Union City, Calif.) and analyzed offline with Axon package, MiniAnalysis (S (Synaptsoft, Decatur, Ga.), and Origin (Microcal Software, Northampton, Mass.). […]

Assay [1] has as its system Valproate rat model of autism. In words: Isolation-induced ultrasonic vocalizations. The assay is classed as in vivo. As to conditions: P4 VPA rats. As for the experimental part:
(§3) Time-mated female Wistar rats at gestational day E7-8 were housed under standard laboratory conditions. The in utero valproic acid (VPA) rodent model of autism spectrum disorders has been previously described in detail. Briefly, the sodium salt of VPA (Sigma-Aldrich) was dissolved in physiological saline solution to a concentration of 300 mg/ml. Pregnant rats received a single intra-peritoneal dose of 600 mg/kg on gestational day 12 (E12). The control dams received a single similar volume injection of saline at the same gestational time-point. Dams were housed individually and allowed to raise their own litters. The offspring were used for experiments on embryonic day 20 (E20) and postnatal (P) days 0, 2, 4, 7, 15 and 30 (after being weaned at P23). Experiments were carried out on offspring of either sex.
To induce ultrasonic vocalizations, […], and were placed into an isolation box (23×28×18 cm) located inside a sound attenuating isolation cubicle (54×57×41 cm; Coulbourn Instruments, Allentown, Pa., USA), and evaluated for ultrasonic vocalizations during a three minutes test. An ultrasound microphone (Avisoft UltraSoundGate Condenser microphone capsule CM16/CMPA, Avisoft Bioacoustics, Berlin, Germany), placed in the roof of the box, was sensitive to frequencies of 10 to 250 kHz. Vocalizations were recorded using the Avisoft Recorder software (version 4.2) with a sampling rate of 250 kHz in 16 bit format. For acoustical analysis, recordings were transferred to SASLab Pro (version 5.2; Avisoft Bioacoustics) and a fast Fourier transformation was conducted (512 FFT-length, 100% frame, Hamming window and 75% time window overlap). The accuracy of call detection was verified manually by an educated user. A Pearson correlation coefficient was computed to assess the relationship between Automatic and Manual analysis. There was 0.99 correlation between the two variables.
as §2

Assay [2] has as its system hippocampal CA3 pyramidal cells. Description: DFGABA in hippocampal CA3 pyramidal cells of offspring after in utero VPA / maternal bumetanide pretreatment. The assay is classed as in vivo, rat. As to conditions: VPA rats (dams 600 mg/kg VPA i.p. at E12). As for the experimental part:
as §3, §1
For recordings, slices were placed into a conventional fully submerged chamber superfused with ACSF at a rate of 2-3 ml/min at room temperature. Patch clamp recordings from visually identified CA3 pyramidal cells in cell-attached configuration were performed using EPC-10 amplifier (HEKA Elektronik Dr. Schulze GmbH, Lambrecht/Pfalz, Germany). Patch pipette solution for recordings of single GABAA channels contained (in mM): NaCl 120, KCl 5, TEA-Cl 20, 4-aminopyridine 5, CaCl2 0.1, MgCl2 10, glucose 10, Hepes-NaOH 10 buffered to pH 7.2-7.3 and GABA 2 μM. Analysis of currents through single channels and current-voltage relationships were performed using Clampfit 9.2 (Axon Instruments, Union City, Calif.). Recordings were digitized (10 kHz) online with Digidata-1200 interface card (Axon Instruments, Union City, Calif.) and analyzed offline with Axon package, MiniAnalysis (S (Synaptsoft, Decatur, Ga.), and Origin (Microcal Software, Northampton, Mass.).
as §2
If the polarity of GABA actions at delivery produces long terms effects in offsprings, then restoring low [Cl^−]i and inhibitory GABA at delivery might restore physiological parameters in juvenile rodents. To test this hypothesis, pregnant females were treated orally 1 day before delivery with bumetanide (2-2.5 mg/kg in drinking water) and juvenile offspring neurons recorded at P15. […] In VPA rats, GABAergic inputs are excitatory and contribute to hyperexcitability of the network. Bumetanide decreases [Cl^−]i and consequently reduces contribution of excitatory GABAergic inputs in the overall network activity.

The subject of assay [3] is Valproate rat model of autism. Description: In vivo EEG recordings in the CA3 area of hippocampus of head-restrained rats. As to conditions: VPA rats P13-15. Here is the method: as §3
Head-fixed rat pups of age P13-P15 were prepared for extracellular recording under isoflurane anesthesia. The skin and periosteum were removed from the skull, which was then covered by glue and dental cement except for a 4-9 mm^2 window above the somatosensory cortex from one or two hemispheres for the silicon probe penetration (4.0-4.2 mm lateral to midline and 2.2-2.5 mm caudal to bregma) and for the reference electrode (1.0-1.5 mm lateral to midline and 6.0-6.5 mm caudal to bregma). The rat was positioned in the stereotaxic apparatus. A 1 mm-diameter burr hole was drilled in the skull; the dura was cut and removed. Recordings were made 1 h after recovery from anesthesia. Pups were kept restrained for <3 h and were closely monitored for signs of stress and to ensure that they spent a normal proportion of their time sleeping. The outside temperature was maintained between 35 and 36° C. The animals were kept in low-light conditions throughout all experiments. 16-site linear silicone probe (NeuroNexus Technologies) coupled to a direct-current amplifier (Molecular Devices) and dunked previously in fluorescent dye (DiI, Invitrogen) was slowly penetrated via the hole at […] depth under the angle 30° in the coronal plane. EEGs were recorded during 2 hours, using a 16-channel amplifier (A-M System, Inc.) and digitized at 5 kHz using Axoscope software (Molecular Deviced). Recordings were amplified and high-pass filtered at 0.3 Hz in Axoscope. Silicone probe location was verified postmortem via dye localization. To quantify the frequency band integral power the traces were band-pass filtered at frequency bands […]) θ-(4-7 Hz), α-(7-12 Hz), β-(12-25 Hz), Low γ-(25-60 Hz), High γ-(60-120 Hz) and Fast oscillations-(120-500 Hz)). Fast Fourier Transform (FFT) was applied with Clampfit (Molecular Devices). Integrals of FFT power spectra were taken and averaged with OriginPro (OriginLab Corporation).
as §2

Assay [4] has as its system hippocampal CA3 pyramidal neurons. Description: Whole-cell voltage clamp recordings of sEPSCs in offspring after maternal pretreatment. The assay is classed as in vivo, rat. The conditions noted are these: P15 rats, maternal SSR pretreatment (1 mg/kg in drinking water); result in words. Here is the method:
Standard whole-cell recordings were performed in coronal neocortical rat or mouse brain slices at room temperature (20-22° C.) from the soma of hippocampal CA3 neurons using an EPC-10 (HEKA Elektronik, Germany) amplifier and filtered at 3-10 kHz. The internal solution contained (in mM): 130 K-gluconate, 10 Na-gluconate, 4 NaCl, 4 MgATP, 4 phosphocreatine, 10 HEPES, and 0.3 GTP (pH 7.3 with KOH). Biocytin (final concentration 0.3-0.5%) was added to the pipette solution to label the neurons from which recordings were obtained. Neurons were visualized by using infrared DIC video microscopy. Spontaneous postsynaptic currents were recorded for […] at the reversal potentials for […] currents (−70 mV). It should be specifically noted that all recordings were made in normal ACSF (1.3 mM MgCl2). Stored data were analyzed using the Mini Analysis 6.0.3 (Synaptosoft Inc., Chapell Hill, N.C.) and Origin (MicroCal, Northampton, Mass.) software. To minimize potential sampling bias, the pups from at least three deliveries for each condition were studied. Data are expressed as mean±S.E.M.
Bumetanide (10 μM), Oxytocin (1 μM) and Isoguvacine (2 μM) were directly added to the perfusion solutions. Bumetanide pretreatment (2-2.5 mg/kg) was given to the dams in drinking water. All drugs used were purchased from Sigma. […]

Values joined by “and” are separate entries in the source; they are usually repeats but may differ in a detail not shown here. Identical values can stand only once. “Also recorded” adds a separate entry of the source.

For the compound `O=C(O)C1=CCNCC1` [isoguvacine], the “Effects of isoguvacine on frequency of spikes in extracellular recordings (% of control), mean ± S.E.” value is on record as 213.5 ± 16.3 (n = 6), P < 0.001 % of control in the assay on hippocampal slices (VPA rats); 213.5±16.3 % of control in the assay on hippocampal slices (VPA rats, listed as Isoguvacine); 38.9 ± 5.1 (n = 3), P < 0.001 % of control in the assay with hippocampal slices (control rats); 38.9±5.1 % of control in the assay with hippocampal slices (control rats, listed as Isoguvacine). Moreover, the “spike frequency in cell-attached recordings” value in the assay on CA3 pyramidal cells (isoguvacine 2 μM, naive neurons, P0) is reported as “inhibited or did not affected”; in the assay with CA3 pyramidal cells (isoguvacine, VPA neurons, P0 and P15), “excitatory action; also recorded: increased”.

With `CCCC(CCC)C(=O)O` [VPA, valproic acid], the “Number of calls, isolation-induced USVs mean ± S.E.M” value in assay [1] is reported as 1 ± 0.5 (n = 26). Also, the “Total duration of calls, isolation-induced USVs mean ± S.E.M” value in assay [1] is listed as 0.04 ± 0.02 (n = 26). Besides, the “DFGABA (mV), mean ± S.E.” value was 8.5 ± 0.6 (n = 9) mV in assay [2] (age E20); 8.2 ± 1.3 (n = 29) mV in assay [2] (age P0); 11.7 ± 1.4 (n = 24) mV in assay [2] (age P2); 9.7 ± 1.1 (n = 26) mV in assay [2] (age P7); 10.2±1.0 mV and 10.2 ± 1 (n = 25 mV and 10.2 ± 1.0 (n = 25) mV in assay [2] (age P15); 8.7 ± 0.8 (n = 25) mV in assay [2] (age P30). Also, the “Integral power spectra of EEG recordings, mean ± S.E.M.” value in assay [3] (frequency band 0.5-4 Hz) came out at 164.05 ± 39.44; in assay [3] (frequency band 4-7 Hz) it was 42.01 ± 12.03; in assay [3] (frequency band 7-12 Hz), 16.52 ± 4.32; in assay [3] (frequency band 12-25 Hz) it was 16.56 ± 4.78; in assay [3] (frequency band 25-60 Hz), 2.41 ± 0.62; in assay [3] (frequency band 60-120 Hz), 0.74 ± 0.17. Moreover, the “Integral power spectra of EEG recordings, mean ± S.E.M.” value in assay [3] (frequency band 120-500 Hz) is given as 1.83 ± 0.42.

In the case of `CCN(Cc1cccnc1)C(=O)c1ccc(Cl)c([C@]2(C)C(=O)N(Cc3ccc(OC)cc3OC)c3ccc(Cl)cc32)c1` [SSR], in assay [4], the “spontaneous activity of neuronal networks (sEPSCs)” value was “increases”.
